Measured values published in patent publication US20040024024A1, “Aromatic sulfone hydroxamates and their use as protease inhibitors” (priority 2001, published 2004).
pIC50, pKi: −log10 of the molar value. Several values for one entry are separate records, joined by “and”; a condition that tells them apart may be missing. Identical values can stand only once. Counter-ions that a name gives are not always drawn.

How the values were obtained:
Format in all cases: biochemical
Human recombinant MMP-2 [1] = biological target: T1, Human recombinant MMP-2 (Homo sapiens, UniProt P08253); experiment: In vitro MMP inhibition, IC50 determination (fluorogenic substrate I)
T1 construct: made in house; host or cells: MMP-2-transfected p2AHT2 cells
T1 sequence (P08253 110-660): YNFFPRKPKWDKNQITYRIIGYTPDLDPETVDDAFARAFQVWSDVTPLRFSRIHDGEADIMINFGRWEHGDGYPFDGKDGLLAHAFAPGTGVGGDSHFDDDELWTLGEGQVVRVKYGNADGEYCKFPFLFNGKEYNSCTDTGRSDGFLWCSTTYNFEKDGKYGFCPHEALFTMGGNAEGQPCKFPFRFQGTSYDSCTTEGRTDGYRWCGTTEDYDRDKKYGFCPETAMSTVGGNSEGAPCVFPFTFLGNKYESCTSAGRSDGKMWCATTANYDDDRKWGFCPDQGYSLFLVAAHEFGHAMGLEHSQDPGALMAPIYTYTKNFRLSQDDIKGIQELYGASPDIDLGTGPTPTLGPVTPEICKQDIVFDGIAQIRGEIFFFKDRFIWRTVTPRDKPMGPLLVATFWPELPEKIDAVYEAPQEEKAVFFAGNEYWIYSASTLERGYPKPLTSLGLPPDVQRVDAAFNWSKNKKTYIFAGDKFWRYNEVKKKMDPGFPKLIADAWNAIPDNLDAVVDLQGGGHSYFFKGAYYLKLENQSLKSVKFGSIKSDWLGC
How it was run: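 APMA- or trypsin-activated recombinant MMP-2 was incubated at room temperature with serial inhibitor dilutions in Tris buffer pH 7.5 (100 mM NaCl, 10 mM CaCl2, 0.05% Brij), with DMSO from 1% stocks, and 4 μM substrate I. Cleavage was read by fluorescence at 328/415 nm; IC50 was taken from the loss of fluorescence versus inhibitor concentration.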

Human recombinant MMP-2 [2] = biological target: T1, Human recombinant MMP-2; experiment: In vitro MMP inhibition, Ki determination (fluorogenic substrate II)
Protocol: Several hydroxamates and salts thereof were analyzed in in vitro assays to determine their ability to inhibit the MMP cleavage of peptide substrates. Inhibition (Ki) and IC50 constants were calculated from the assayed hydroxamate-MMP interactions.
Human recombinant MMP-1, MMP-2, MMP-9, MMP-13, and MMP-14 were used in this assay. All enzymes were prepared in Assignee's laboratories following usual laboratory procedures. Protocols for the preparation and use of these enzymes are available in the scientific literature. See, e.g., Enzyme Nomenclature (Academic Press, San Diego, Calif., 1992) (and the citations therein). See also, Frije et al., J. Biol. Chem., 26(24), 16766-73 (1994).
The MMP-2 proenzyme was purified by gelatin Sepharose chromatography from MMP-2-transfected p2AHT2 cells provided by Dr. Gregory Goldberg of Washington University (St. Louis, Mo.).
All MMPs were activated using 4-aminophenylmercuric acetate (“APMA”, Sigma Chemical, St. Louis, Mo.) or trypsin. MMP-9 also was activated using human recombinant MMP-3 (purified in Assignee's laboratory following standard cloning and purification techniques).
Two fluorogenic, methoxycoumarin-containing polypeptide substrates were used in the MMP inhibition assays:
MCA-ArgProLeuGlyLeuDpaAlaArgGluArgNH2 (II)
Here, “Dpa” is 3-(2,4-dinitrophenyl)-L-2,3-diaminopropionyl group, and “MCA” is 7-methoxycoumarin-4-yl acetyl. Substrate (I) was purchased from Baychem (Redwood City, Calif.), and substrate II was prepared Assignee's laboratory. Substrate I was used in the IC50 determination assays, while substrate II was used in the Ki determination assays. In the absence of MMP inhibitory activity, either substrate is cleaved at the Gly-Leu peptide bond. This cleavage separates the highly fluorogenic peptide from the 2,4-dinitrophenyl quencher, thus resulting in increase of fluorescent intensity.
The stock solutions of the assayed hydroxamates (or salts thereof) were prepared in 1% dimethyl sulfoxide (DMSO). These stock solutions were diluted in Buffer A (100 mM Tris-HCl, 100 mM NaCl, 10 mM CaCl2, 0.05% polyoxyethylene 23 lauryl ether, pH 7.5) to obtain solutions with different hydroxamate concentrations, i.e., assay solutions with different concentrations of the assayed MMP inhibitory compound. The experiment controls contained the same amount of Buffer A/DMSO as the assayed sample, but contained no hydroxamate (or salt thereof).
The assays from which the Ki determinations were made were performed as follows. The assayed hydroxamate samples were incubated in separate wells of untreated white polystyrene plates (Nunc Nalgene International, Rochester, N.Y.), and analyzed on a Tecan SpectraFlour Plus plate reader. The excitation wavelength was 330 nm, and the emission wavelength—420 nm. All samples (assayed hydroxamates and controls) were incubated in separate plate wells at room temperature for 1 hr in the presence of 4 μM of MMP substrate (II). In the absence of MMP inhibitory activity, substrate II was cleaved at the Gly-Leu bond resulting in an increase of relative fluorescence. Inhibition was observed as a reduced rate of this increase in relative fluorescence. The various hydroxamates were analyzed using a single low enzyme concentration with a single substrate concentration fixed at or below the Km. This protocol is a modification of method by Knight et al., FEBS Lett., 296(3), 263-266 (1992). Apparent inhibitory constants were determined by non-linear regression of reaction velocity as a function of inhibitor and enzyme concentration using Morrison's equation, as described by Kuzmic, Anal. Biochem. 286, 45-50 (2000). […] Since the substrate concentration was chosen to be at or below the Km, the apparent Ki's from this analysis were reported as Ki's without correction for the influence of substrate.

Human recombinant MMP-9 = biological target: T2, Human recombinant MMP-9 (Homo sapiens, UniProt P14780); experiment: In vitro MMP inhibition, IC50 determination (fluorogenic substrate I); settings: value outside parentheses
T2 construct: made in house; host or cells: MMP-9-transfected HT1080 cells (spent media)
How it was run: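 MMP-9 proenzyme purified from transfected HT1080 cell media, activated with APMA or trypsin. Compound dilutions in pH 7.5 Tris/NaCl/CaCl2 buffer with 0.05% polyoxyethylene 23 lauryl ether, incubated at room temperature with 4 μM MCA/Dpa substrate I. IC50 from fluorescence loss (ex 328, em 415 nm) versus inhibitor concentration.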

[3] = substrate (I) 4 μM, room temperature, values not in parenthesis
[4] = substrate (II) 4 μM, 1 hr room temperature, apparent Ki, values in parenthesis

T2 sequence (P14780 107-707 limits assumed): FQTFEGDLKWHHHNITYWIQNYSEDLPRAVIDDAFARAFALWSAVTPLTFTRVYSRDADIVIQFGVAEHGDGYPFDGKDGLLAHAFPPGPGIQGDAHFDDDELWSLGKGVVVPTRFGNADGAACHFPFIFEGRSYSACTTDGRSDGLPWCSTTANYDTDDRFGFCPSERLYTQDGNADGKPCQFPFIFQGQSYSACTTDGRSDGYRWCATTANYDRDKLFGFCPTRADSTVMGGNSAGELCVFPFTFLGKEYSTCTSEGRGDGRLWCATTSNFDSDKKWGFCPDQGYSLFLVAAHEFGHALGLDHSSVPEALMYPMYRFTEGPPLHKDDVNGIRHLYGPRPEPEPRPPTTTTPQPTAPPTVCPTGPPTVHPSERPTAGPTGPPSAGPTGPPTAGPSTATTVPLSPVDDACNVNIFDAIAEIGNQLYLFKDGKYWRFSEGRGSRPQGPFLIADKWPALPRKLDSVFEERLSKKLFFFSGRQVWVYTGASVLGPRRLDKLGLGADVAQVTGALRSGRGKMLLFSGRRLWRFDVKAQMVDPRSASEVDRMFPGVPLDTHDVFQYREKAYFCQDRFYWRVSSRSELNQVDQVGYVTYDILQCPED

Compound	pIC50 (Human recombinant MMP-2 [1]; value outside parentheses)	pKi (Human recombinant MMP-2 [2]; value in parentheses)	pIC50 (Human recombinant MMP-2 [1]; value outside parenthesis)	pKi (Human recombinant MMP-2 [2]; value in parenthesis)	further results
O=C(NO)C1(S(=O)(=O)c2ccc(OCCCc3cccc(-c4ccccc4O)c3)cc2)CCOCC1 [Example 636]	6.71	6.28	–	–	–
N#Cc1ccc(-c2cccc(CCCOc3ccc(S(=O)(=O)C4(C(=O)NO)CCOCC4)cc3)c2)cc1 [Example 624]	6.67	6.21	–	–	pIC50 (Human recombinant MMP-9): 5.99
O=C(NO)C1(S(=O)(=O)c2ccc(OCCCc3cccc(-c4ccco4)c3)cc2)CCOCC1 [Example 97]	–	–	6.73	6.53	–
O=C1Nc2ccc(-c3noc(CCCOc4ccc(S(=O)(=O)C5(C(=O)NO)CCN(C6CC6)CC5)cc4)n3)cc21 [Example 142]	–	–	7.23	7.02	–
O=C(NO)C1(S(=O)(=O)c2ccc(OCCCc3nc(-c4ccccc4)no3)cc2)CCOCC1 [Example 584]	7.14	7.68	–	–	–
O=C(NO)C1(S(=O)(=O)c2ccc(OCCCc3cccc(-c4ccccc4Cl)c3)cc2)CCOCC1 [Example 162]	–	–	5.80	5.63	–
CC(C)c1ccc(-c2cccc(CCCOc3ccc(S(=O)(=O)C4(C(=O)NO)CCOCC4)cc3)c2)cc1 [Example 160]	–	–	< 5.00	< 5.00	–
O=C(NO)C1(S(=O)(=O)c2ccc(OCCCc3cccc(-n4ccnc4)c3)cc2)CCOCC1 [Example 574]	7.53	6.95	–	–	–
O=C(NO)C1(S(=O)(=O)c2ccc(OCCCc3cccc(-c4ccc(C(F)(F)F)cc4)c3)cc2)CCOCC1 [Example 625]	5.46	5.16	–	–	–
CCN1CCC(C(=O)NO)(S(=O)(=O)c2ccc(OCCCSc3nc4ccccc4s3)cc2)CC1 [Example 591]	8.46	–	–	–	pIC50 (Human recombinant MMP-9): 7.92
NC(=O)c1cccc(OCCOc2ccc(S(=O)(=O)C3(C(=O)NO)CCOCC3)cc2)c1 [Example 54]	–	–	–	–	pIC50 (Human recombinant MMP-2 [1]; [3]): 7.45; pKi (Human recombinant MMP-2 [2]; [4]): 7.19
O=C(NO)C1(S(=O)(=O)c2ccc(OCCCc3cccc(-c4csc5ccccc45)c3)cc2)CCOCC1 [Example 631]	5.67	5.30	–	–	–
Cc1ccc(-c2cccc(CCCOc3ccc(S(=O)(=O)C4(C(=O)NO)CCOCC4)cc3)c2)s1 [Example 639]	6.61	6.30	–	–	–
O=C(NO)C1(S(=O)(=O)c2ccc(OCCCc3cccc(-c4ccccn4)c3)cc2)CCOCC1 [Example 148]	–	–	6.57	6.67	–
O=C(NO)C1(S(=O)(=O)c2ccc(OCCCc3nc(-c4cccnc4)no3)cc2)CCOCC1 [Example 578]	7.69	7.14	–	–	–
COCCN1CCC(C(=O)NO)(S(=O)(=O)c2ccc(OCCCc3cc(-c4ccc(F)cc4F)cs3)cc2)CC1 [Example 47, 4-[(4-{3-[4-(2,4-difluorophenyl)thien-2-l]propoxy}phenyl)sulfonyl]-N-hydroxy-1-(2-methoxyethyl)piperidine-4-carboxamide Hydrochloride]	–	–	–	–	pIC50 (Human recombinant MMP-2 [1]; [3]): 7.74; pKi (Human recombinant MMP-2 [2]; [4]): 7.72 and 7.33
O=C(NO)C1(S(=O)(=O)c2ccc(OCCCc3cccc(-c4coc5ccccc45)c3)cc2)CCOCC1 [Example 634]	6.31	6.01	–	–	–
O=C(NO)C1(S(=O)(=O)c2ccc(OCCCc3cccc(-c4ccncc4)c3)cc2)CCOCC1 [Example 149]	–	–	7.11	7.08	–
O=C(NO)C1(S(=O)(=O)c2ccc(OCCCc3cccc(-c4ccc(OC(F)(F)F)cc4)c3)cc2)CCOCC1 [Example 147]	–	–	5.32	< 5.00	–
O=C(NO)C1(S(=O)(=O)c2ccc(OCCCc3cccc(-c4ccc5ccccc5c4)c3)cc2)CCOCC1 [Example 629]	6.27	5.99	–	–	–
Cc1ccc(-c2cccc(CCCOc3ccc(S(=O)(=O)C4(C(=O)NO)CCOCC4)cc3)c2)cc1C [Example 165]	–	–	5.47	< 5.00	–
O=C(COc1ccc(S(=O)(=O)C2(C(=O)NO)CCOCC2)cc1)c1cccc(-c2ccccc2)c1 [Example 563]	7.13	7.15	–	–	–
Cc1ccccc1-c1cccc(CCCOc2ccc(S(=O)(=O)C3(C(=O)NO)CCOCC3)cc2)c1 [Example 164]	–	–	5.97	6.01	–
O=C(NO)C1(S(=O)(=O)c2ccc(OCCCc3cccc(-c4ccc5c(c4)OCCO5)c3)cc2)CCOCC1 [Example 627]	5.68	5.40	–	–	–
O=C(CCCOc1ccc(S(=O)(=O)C2(C(=O)NO)CCOCC2)cc1)Nc1cccc(I)c1 [Example 570]	8.32	8.00	–	–	–
O=C(NO)C1(S(=O)(=O)c2ccc(OCCCc3cccc(-c4cc5ccccc5s4)c3)cc2)CCOCC1 [Example 633]	5.55	5.34	–	–	–
C=Cc1ccc(-c2cccc(CCCOc3ccc(S(=O)(=O)C4(C(=O)NO)CCOCC4)cc3)c2)cc1 [Example 635]	5.64	5.33	–	–	–
O=C(NO)C1(S(=O)(=O)c2ccc(OCCCc3cccc(-c4ccc(F)cc4)c3)cc2)CCOCC1 [Example 39]	–	–	–	–	pIC50 (Human recombinant MMP-2 [1]; [3]): 5.89; pKi (Human recombinant MMP-2 [2]; [4]): 5.79
O=C(NO)C1(S(=O)(=O)c2ccc(OCCCc3cncc(Br)c3)cc2)CCOCC1 [Example 522]	7.89	7.49	–	–	–
O=C(NO)C1(S(=O)(=O)c2ccc(OCCCc3cccc(-c4cccc5ccccc45)c3)cc2)CCOCC1 [Example 638]	5.36	5.09	–	–	–
